Numbers after ± are expanded uncertainties.
Assay: xn = mol fraction of the nth substance listed
Conditions: Liquid, Bellows volumetry

N [ammonia] + O
mass density [kg/m3]
Conditions | x1 = 0.1048 | x1 = 0.2046 | x1 = 0.3807 | x1 = 0.5565 | x1 = 0.7008 | x1 = 0.801 | x1 = 0.9102 | x1 = 1
450 K, 200000 kPa | – | – | – | 755.2 ± 3.6 | 699.3 ± 3.4 | 660.9 ± 3.2 | 618.7 ± 3 | 588.2 ± 2.8
500 K, 10000 kPa | 782.5 ± 3.8 | 728.2 ± 3.5 | – | – | – | – | – | –
500 K, 20000 kPa | 792.5 ± 3.8 | 740.4 ± 3.6 | 641.7 ± 3.1 | 517 ± 2.5 | – | – | – | –
500 K, 30000 kPa | 801.3 ± 3.9 | 751.1 ± 3.6 | 658.5 ± 3.2 | 551.1 ± 2.7 | 447.5 ± 2.2 | – | – | –
500 K, 40000 kPa | 809.6 ± 3.9 | 760.6 ± 3.7 | 672.4 ± 3.3 | 574 ± 2.8 | 487.8 ± 2.4 | 422 ± 2.1 | – | –
500 K, 50000 kPa | 817.3 ± 3.9 | 769.5 ± 3.7 | 684.3 ± 3.3 | 591.7 ± 2.9 | 514.1 ± 2.5 | 456.2 ± 2.2 | – | 350.9 ± 1.7
500 K, 60000 kPa | 824.3 ± 4 | 777.5 ± 3.8 | 695.3 ± 3.4 | 606.4 ± 2.9 | 534.1 ± 2.6 | 480.7 ± 2.3 | 426.9 ± 2.1 | 384.9 ± 1.8
500 K, 70000 kPa | 831.3 ± 4 | 785.1 ± 3.8 | 704.8 ± 3.4 | 619 ± 3 | 550.6 ± 2.7 | 499.8 ± 2.4 | 450 ± 2.2 | 410.1 ± 2
500 K, 80000 kPa | 837.7 ± 4 | 792.1 ± 3.8 | 713.9 ± 3.4 | 630.1 ± 3 | 564.5 ± 2.7 | 515.8 ± 2.5 | 468.5 ± 2.3 | 430.2 ± 2.1
500 K, 90000 kPa | 843.7 ± 4.1 | 798.6 ± 3.9 | 721.8 ± 3.5 | 640.2 ± 3.1 | 576.7 ± 2.8 | 529.6 ± 2.6 | 484.1 ± 2.3 | 446.9 ± 2.1
500 K, 100000 kPa | 849.7 ± 4.1 | 805 ± 3.9 | 729.7 ± 3.5 | 649.4 ± 3.1 | 587.6 ± 2.8 | 541.6 ± 2.6 | 497.6 ± 2.4 | 461.5 ± 2.2
500 K, 120000 kPa | 860.7 ± 4.1 | 816.7 ± 3.9 | 743.7 ± 3.6 | 665.7 ± 3.2 | 606.7 ± 2.9 | 562.5 ± 2.7 | 520.1 ± 2.5 | 485.8 ± 2.3
500 K, 140000 kPa | 870.8 ± 4.2 | 827.5 ± 4 | 756.6 ± 3.6 | 679.9 ± 3.3 | 623.1 ± 3 | 580.1 ± 2.8 | 538.9 ± 2.6 | 505.9 ± 2.4
500 K, 160000 kPa | 880.6 ± 4.2 | 837.4 ± 4 | 768.3 ± 3.7 | 692.9 ± 3.3 | 637.4 ± 3.1 | 595.3 ± 2.9 | 555 ± 2.7 | 523.1 ± 2.5
500 K, 180000 kPa | 889.4 ± 4.3 | 846.7 ± 4.1 | 779.3 ± 3.8 | 704.5 ± 3.4 | 650.4 ± 3.1 | 608.9 ± 2.9 | 569.2 ± 2.7 | 538.3 ± 2.6
500 K, 200000 kPa | 897.9 ± 4.3 | 855.4 ± 4.1 | 789.2 ± 3.8 | 715 ± 3.4 | 662.1 ± 3.2 | 621.2 ± 3 | 581.9 ± 2.8 | 551.9 ± 2.6

— the NIST ThermoML archive (doi:10.1016/j.jct.2008.06.009)
